What all share (assay): Further analysis of a plurality of inhibitors and a plurality of kinases on microarray (Example IX, Table 5);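 for Inhibition level, PRKCI: level 0 none or unclear Level 1 marginal Level 2 substantial inhibition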
What all share (type): biochemical

For assay [1], the target named is T1, plurality of kinases (Table 5) (Homo sapiens, UniProt P51813).
T1 sequence (P51813 1-675): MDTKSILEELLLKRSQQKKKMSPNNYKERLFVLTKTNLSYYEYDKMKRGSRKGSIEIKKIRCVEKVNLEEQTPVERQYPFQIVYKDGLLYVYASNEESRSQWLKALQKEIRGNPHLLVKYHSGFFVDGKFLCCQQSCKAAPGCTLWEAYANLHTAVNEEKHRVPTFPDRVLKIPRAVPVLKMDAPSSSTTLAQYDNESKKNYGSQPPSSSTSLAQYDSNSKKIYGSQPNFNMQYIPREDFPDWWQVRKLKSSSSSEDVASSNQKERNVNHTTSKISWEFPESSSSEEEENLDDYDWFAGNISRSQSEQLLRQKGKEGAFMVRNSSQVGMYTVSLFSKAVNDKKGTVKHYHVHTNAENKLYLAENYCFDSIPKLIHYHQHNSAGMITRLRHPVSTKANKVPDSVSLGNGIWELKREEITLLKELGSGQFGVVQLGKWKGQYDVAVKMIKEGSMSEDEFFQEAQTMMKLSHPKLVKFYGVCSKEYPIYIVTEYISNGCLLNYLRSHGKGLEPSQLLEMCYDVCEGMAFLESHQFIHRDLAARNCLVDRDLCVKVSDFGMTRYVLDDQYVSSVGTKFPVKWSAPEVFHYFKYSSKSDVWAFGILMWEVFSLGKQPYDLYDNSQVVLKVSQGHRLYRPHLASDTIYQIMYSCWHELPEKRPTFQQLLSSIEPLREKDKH
As to conditions: plate B12; inhibitor 100 uM.

Assay [2] addresses T2, plurality of kinases (Table 5) (Homo sapiens, UniProt P54753).
T2 sequence (P54753 34-998): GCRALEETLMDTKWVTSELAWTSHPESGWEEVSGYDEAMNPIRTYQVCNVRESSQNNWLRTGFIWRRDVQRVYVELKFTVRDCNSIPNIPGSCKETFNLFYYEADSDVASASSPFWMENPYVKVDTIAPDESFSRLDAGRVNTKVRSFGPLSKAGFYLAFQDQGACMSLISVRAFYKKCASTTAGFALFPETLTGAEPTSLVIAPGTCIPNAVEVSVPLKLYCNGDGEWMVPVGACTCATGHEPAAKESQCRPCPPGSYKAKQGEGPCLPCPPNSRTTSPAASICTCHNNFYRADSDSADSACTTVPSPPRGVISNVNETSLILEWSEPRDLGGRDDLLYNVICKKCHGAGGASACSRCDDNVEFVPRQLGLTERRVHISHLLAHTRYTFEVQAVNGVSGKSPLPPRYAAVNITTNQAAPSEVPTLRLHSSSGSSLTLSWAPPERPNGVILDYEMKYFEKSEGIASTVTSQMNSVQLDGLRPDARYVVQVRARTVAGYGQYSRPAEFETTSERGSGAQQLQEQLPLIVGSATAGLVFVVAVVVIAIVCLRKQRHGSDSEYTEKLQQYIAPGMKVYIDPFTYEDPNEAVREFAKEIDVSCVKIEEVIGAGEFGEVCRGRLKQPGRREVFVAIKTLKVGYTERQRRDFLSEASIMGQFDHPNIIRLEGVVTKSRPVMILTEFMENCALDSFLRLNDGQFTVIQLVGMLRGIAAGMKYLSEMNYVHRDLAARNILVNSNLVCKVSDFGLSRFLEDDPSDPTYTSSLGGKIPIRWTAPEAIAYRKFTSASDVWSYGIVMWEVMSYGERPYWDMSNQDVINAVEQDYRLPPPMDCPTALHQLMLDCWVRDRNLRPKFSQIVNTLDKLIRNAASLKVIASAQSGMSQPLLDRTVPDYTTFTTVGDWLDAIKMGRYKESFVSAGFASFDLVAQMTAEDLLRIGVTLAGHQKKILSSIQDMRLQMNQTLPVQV
As to conditions: plate B5.

Assay [3] addresses plurality of kinases (Table 5) (Homo sapiens, UniProt O75914). As to conditions: plate D4.
Assay [4] concerns the target T3, plurality of kinases (Table 5) (Homo sapiens, UniProt P41743).
T3 sequence (P41743 1-596): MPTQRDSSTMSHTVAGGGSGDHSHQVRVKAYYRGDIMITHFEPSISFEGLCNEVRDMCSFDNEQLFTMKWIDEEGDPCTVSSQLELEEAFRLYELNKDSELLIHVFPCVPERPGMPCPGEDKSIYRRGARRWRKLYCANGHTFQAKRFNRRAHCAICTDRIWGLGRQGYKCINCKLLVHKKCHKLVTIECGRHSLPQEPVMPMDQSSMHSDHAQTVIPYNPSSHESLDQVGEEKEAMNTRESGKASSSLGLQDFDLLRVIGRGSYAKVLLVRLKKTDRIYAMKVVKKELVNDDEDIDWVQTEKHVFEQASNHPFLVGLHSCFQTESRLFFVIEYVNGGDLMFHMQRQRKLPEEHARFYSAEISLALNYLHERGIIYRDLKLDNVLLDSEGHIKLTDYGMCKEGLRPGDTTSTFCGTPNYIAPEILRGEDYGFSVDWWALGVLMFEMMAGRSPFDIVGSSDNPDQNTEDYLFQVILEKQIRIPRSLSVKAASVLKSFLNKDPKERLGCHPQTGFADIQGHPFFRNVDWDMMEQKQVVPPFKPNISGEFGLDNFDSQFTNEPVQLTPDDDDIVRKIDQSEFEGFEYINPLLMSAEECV
The settings on record: plate A2.

Assay [5] deals with plurality of kinases (Table 5) (Homo sapiens, UniProt P09769). The settings on record: plate B10.
Chain of plurality of kinases (Table 5) (Homo sapiens, UniProt P09769) (P09769 whole entry): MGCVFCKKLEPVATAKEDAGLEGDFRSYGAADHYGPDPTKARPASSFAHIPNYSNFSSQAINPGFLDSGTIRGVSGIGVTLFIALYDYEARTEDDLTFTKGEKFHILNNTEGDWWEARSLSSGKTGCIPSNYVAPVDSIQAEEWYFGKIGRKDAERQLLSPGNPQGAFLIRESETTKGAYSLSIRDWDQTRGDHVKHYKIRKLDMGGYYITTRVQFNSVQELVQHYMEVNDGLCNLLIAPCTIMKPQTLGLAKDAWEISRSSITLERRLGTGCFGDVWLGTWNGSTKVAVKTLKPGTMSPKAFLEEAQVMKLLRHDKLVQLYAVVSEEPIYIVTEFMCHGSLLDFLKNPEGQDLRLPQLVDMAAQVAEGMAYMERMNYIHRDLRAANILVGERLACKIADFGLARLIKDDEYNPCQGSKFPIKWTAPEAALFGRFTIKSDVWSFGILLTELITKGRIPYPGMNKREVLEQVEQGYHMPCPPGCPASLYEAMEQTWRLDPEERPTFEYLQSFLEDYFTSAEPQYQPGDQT

Chain of plurality of kinases (Table 5) (Homo sapiens, UniProt O75914) (O75914 whole entry): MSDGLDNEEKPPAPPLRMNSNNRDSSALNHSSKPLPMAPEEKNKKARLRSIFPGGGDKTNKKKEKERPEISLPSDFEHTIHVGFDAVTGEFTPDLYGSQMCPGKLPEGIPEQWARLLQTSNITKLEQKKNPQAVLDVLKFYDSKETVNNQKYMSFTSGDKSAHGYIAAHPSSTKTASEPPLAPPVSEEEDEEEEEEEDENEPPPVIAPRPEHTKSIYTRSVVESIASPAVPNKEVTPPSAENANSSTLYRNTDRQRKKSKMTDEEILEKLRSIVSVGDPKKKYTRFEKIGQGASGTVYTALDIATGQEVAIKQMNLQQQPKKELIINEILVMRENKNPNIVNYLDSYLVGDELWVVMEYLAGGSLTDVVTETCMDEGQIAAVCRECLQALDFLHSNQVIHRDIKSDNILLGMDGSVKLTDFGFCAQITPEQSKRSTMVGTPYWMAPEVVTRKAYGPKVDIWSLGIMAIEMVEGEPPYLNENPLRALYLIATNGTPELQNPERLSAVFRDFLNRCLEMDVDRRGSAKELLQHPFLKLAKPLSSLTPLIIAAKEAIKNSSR

Turning to `COc1cc2ncnc(Nc3cccc(Cl)c3)c2cc1OC` [AG 1478], the “Inhibition level, BMX” value in assay [1] is listed as 1. Further, in assay [2] (inhibitor 100 uM), the “Inhibition level, EPHB3” value is recorded as 2. The “Inhibition level, PAK3” value in assay [3] (inhibitor 100 uM) was 2. In assay [4] (inhibitor 100 uM), the “Inhibition level, PRKCI” value was 0. The “Inhibition level, FGR” value in assay [5] (inhibitor 100 uM) is 2.
`CC(=O)c1c(O)c(C)c(O)c(Cc2c(O)c3c(c(C(=O)/C=C/c4ccccc4)c2O)OC(C)(C)C=C3)c1O` [Rottlerin (Mallotoxin)]: the “Inhibition level, BMX” value in assay [1] is recorded as 1. Moreover, the “Inhibition level, EPHB3” value in assay [2] (inhibitor 100 uM) is 2. The “Inhibition level, PAK3” value in assay [3] (inhibitor 100 uM) came to 0. For the same compound, the “Inhibition level, PRKCI” value in assay [4] (inhibitor 100 uM) was determined as 2. The “Inhibition level, FGR” value in assay [5] (inhibitor 100 uM) is given as 2.
Regarding `CN[C@@H]1C[C@H]2O[C@@](C)([C@@H]1OC)n1c3ccccc3c3c4c(c5c6ccccc6n2c5c31)C(=O)NC4` [Staurosporine], the “Inhibition level, EPHB3” value in assay [2] (Staurosporine, conc. not given) is reported as 0. Further, in assay [5] (Staurosporine, conc. not given), the “Inhibition level, FGR” value was 2.
On to `N#C/C(=C/c1ccc(O)c(O)c1)C(=O)NCc1ccccc1` [AG 490], for which, in assay [1], the “Inhibition level, BMX” value amounted to 0. Further, the “Inhibition level, EPHB3” value in assay [2] (inhibitor 100 uM) is 2. The “Inhibition level, PAK3” value in assay [3] (inhibitor 100 uM) is on record as 1. For the same compound, in assay [4] (inhibitor 100 uM), the “Inhibition level, PRKCI” value is recorded as 2. Further, the “Inhibition level, FGR” value in assay [5] (inhibitor 100 uM) was 2.
Consider `O=S(=O)(NCCNC/C=C/c1ccc(Br)cc1)c1cccc2cnccc12` [H-89], for which the “Inhibition level, BMX” value in assay [1] worked out at 1. In addition, the “Inhibition level, EPHB3” value in assay [2] (inhibitor 100 uM) turned out to be 1. The “Inhibition level, PAK3” value in assay [3] (inhibitor 100 uM) was 2. Besides, in assay [4] (inhibitor 100 uM), the “Inhibition level, PRKCI” value was 2. Besides, the “Inhibition level, FGR” value in assay [5] (inhibitor 100 uM) is 2.
On to `CC(C)(C)n1nc(-c2ccc(Cl)cc2)c2c(N)ncnc21` [PP2], for which the “Inhibition level, BMX” value in assay [1] turned out to be 2. Besides, in assay [2] (inhibitor 100 uM), the “Inhibition level, EPHB3” value amounted to 2. The “Inhibition level, PAK3” value in assay [3] (inhibitor 100 uM) is given as 2. In assay [4] (inhibitor 100 uM), the “Inhibition level, PRKCI” value turned out to be 1. The “Inhibition level, FGR” value in assay [5] (inhibitor 100 uM) was determined as 2.
`O=c1c(O)c(-c2ccc(O)c(O)c2)oc2cc(O)cc(O)c12` [Quercetin]: the “Inhibition level, BMX” value in assay [1] is listed as 0. Besides, in assay [2] (inhibitor 100 uM), the “Inhibition level, EPHB3” value was determined as 2. The “Inhibition level, PAK3” value in assay [3] (inhibitor 100 uM) stood at 2. Moreover, the “Inhibition level, PRKCI” value in assay [4] (inhibitor 100 uM) came to 0. Further, the “Inhibition level, FGR” value in assay [5] (inhibitor 100 uM) is reported as 2.
As to `O=c1c(-c2ccc(O)cc2)coc2cc(O)cc(O)c12` [Genistein], in assay [1], the “Inhibition level, BMX” value is listed as 0. Also, the “Inhibition level, EPHB3” value in assay [2] (Genistein, conc. not given) is reported as 0; in assay [2] (inhibitor 100 uM), 2. Further, the “Inhibition level, PAK3” value in assay [3] (Genistein, conc. not given) is listed as 0; in assay [3] (inhibitor 100 uM) it was 2. The “Inhibition level, PRKCI” value is given as 0 in assay [4] (Genistein <3.7 mM) and 2 in assay [4] (inhibitor 100 uM). Also, the “Inhibition level, FGR” value in assay [5] (Genistein, conc. not given) is on record as 2; in assay [5] (inhibitor 100 uM) it was 2.
As to `Cn1cc(C2=C(c3cn(CCCSC(=N)N)c4ccccc34)C(=O)NC2=O)c2ccccc21` [Ro-31-8220], the “Inhibition level, BMX” value in assay [1] is 2. Besides, the “Inhibition level, EPHB3” value in assay [2] (Ro-31-8220, conc. not given) is given as 0; in assay [2] (inhibitor 100 uM), 2. The “Inhibition level, PAK3” value in assay [3] (Ro-31-8220, conc. not given) came to 2; in assay [3] (inhibitor 100 uM), 2. Besides, the results for the “Inhibition level, PRKCI” value in assay [4] (Ro-31-8220 90 uM) and in assay [4] (inhibitor 100 uM) were 2 and 0, respectively. Moreover, the “Inhibition level, FGR” value in assay [5] (Ro-31-8220, conc. not given) was found to be 2; in assay [5] (inhibitor 100 uM), 2.

The record behind these values is patent US7635572B2, “Methods for conducting assays for enzyme activity on protein microarrays” (Life Technologies Corporation, priority 2004, dated 2009).
